# Results as given in US20240270792A1, “SHORT ANTIMICROBIAL PEPTIDES” (priority 2021, published 2024).
# Square brackets hold non-standard residues; d marks the D form. Ends that are not written are not given here. Peptide text beside a SMILES is read from it. hPhe = N[C@@H](CCc1ccccc1)C(=O)O; αMeF = C[C@](N)(Cc1ccccc1)C(=O)O
# Experiments:
# [1] = test system: Acinetobacter baumannii ATCC 19606; assay type: cell-based; settings: Gram-negative, 18-24 hrs at 37° C.
# Source text: (§1) The following strains were used: • Gram-negative bacteria: Escherichia coli ATCC 25922, Pseudomonas aeruginosa ATCC 27853, Acinetobacter baumannii ATCC 19606, Klebsiella pneumoniae ATCC 13883, • Gram-positive bacteria: Staphylococcus aureus ATCC 25923, multi-drug resistant Staphylococcus aureus ATCC BAA-44, Streptococcus pyogenes ATCC 19615, Listeria ivanovii Li4pVS2, Enterococcus faecalis ATCC 29212,
# (§2) For each strain, a standard inoculum of approximately 10^6 bacteria/mL (exponential growth phase) was prepared. To this end, a colony isolated on LB agar previously inoculated with one of the strains was cultured in 4 ml of LB broth medium, except for S. pyogenes and L. ivanovii which were grown in BHI (Brain Heart Infusion) from a colony isolated on BHI agar. Liquid cultures were then incubated for 2 to 3 hrs at 37° C. with shaking for the bacteria to reach exponential growth phase. After centrifugation, most of the bacterial suspensions were diluted in Mueller-Hinton (MH) broth medium to an OD630nm of 0.01, which corresponds to a concentration of approximately 10^6 cfu/mL (cfu: colony forming unit). A different medium was used for E. faecalis (LB) and for S. pyogenes and L. ivanovii (BHI).
# (§3) The minimum inhibitory concentration (MIC) of each peptide was determined by a test of growth inhibition in broth medium. […] The test was performed in a sterile 96-well microtiter plate. A series of increasing concentrations of peptide (2 to 400 μM) was first prepared in sterile MilliQ water. 50 μL of each peptide concentration were mixed into the well with 50 μL of bacterial suspension (10^6 cfu/ml). The microtiter plate was then incubated for 18-24 hrs at 37° C. with shaking. Bacterial growth was determined by measuring OD at 630 nm (turbidity) on a plate reader. Tests were carried out in triplicate for each peptide concentration and at least three independent experiments were performed to determine the MIC value.
# (§4) The growth inhibition negative control was obtained by replacing the solution containing the peptide with 50 μL of sterile MilliQ water. The positive control allowing the complete inhibition of bacterial growth was obtained by replacing the solution containing the peptide with 50 μL, of 0.7% formaldehyde.
# [2] = test system: Enterococcus faecalis ATCC 29212; assay type: cell-based; settings: Gram-positive, LB, 18-24 hrs at 37° C.
# Source text: as §1, §2, §3, §4
# [3] = test system: Escherichia coli ATCC 25922; assay type: cell-based; settings: Gram-negative, 18-24 hrs at 37° C.
# Source text: as §1, §2, §3, §4
# [4] = test system: Listeria ivanovii Li4pVS2; assay type: cell-based; settings: Gram-positive, BHI, 18-24 hrs at 37° C.
# Source text: as §1, §2, §3, §4
# [5] = test system: Pseudomonas aeruginosa ATCC 27853; assay type: cell-based; settings: Gram-negative, 18-24 hrs at 37° C.
# Source text: as §1, §2, §3, §4
# Staphylococcus aureus = assay type: cell-based; settings: Gram-positive, 18-24 hrs at 37° C.
# Source text: as §1, §2, §3, §4
# [6] = test system: Streptococcus pyogenes ATCC 19615; assay type: cell-based; settings: Gram-positive, BHI, 18-24 hrs at 37° C.
# Source text: as §1, §2, §3, §4
# [7] = Cytotoxicity assay: hemolysis of erythrocytes; assay type: cell-based; settings: 50% hemolysis, human erythrocytes, 1 h at 37° C., pH 7.4; read-out: LC50 Erythrocytes Human
# Procedure: Hemolytic experiments were performed using human erythrocytes obtained from healthy adult donors (Etablissement Français du sang, Paris, France) according to a previously described protocol (Abbassi et al., “Isolation, characterization and molecular cloning of new temporins from the skin of the North African ranid Pelophylax saharica”, Peptides, 2008, 29: 1526-33).
# Briefly, synthetic peptides (1-200 μM, final concentrations) were incubated (100 μL, final volume) with erythrocytes (2×10^7 cells) in Dulbecco's phosphate-buffered saline (pH 7.4) for 1 h at 37° C. After centrifugation (12,000×g, 15 s), the absorbance of the supernatant was measured at 450 nm.
# [8] = test system: Klebsiella pneumoniae ATCC 13883; experiment: MIC, growth inhibition in broth medium; assay type: cell-based; settings: Gram-negative, 18-24 hrs at 37° C.
# Source text: as §1
# as §2, with “A different medium was used for E. faecalis (LB) and for S. pyogenes and L. ivanovii (BHI).” left out
# The minimum inhibitory concentration (MIC) of each peptide was determined by a test of growth inhibition in broth medium. […] Bacterial growth was determined by measuring OD at 630 nm (turbidity) on a plate reader. […]
# [9] = test system: Gram-positive and Gram-negative bacteria; settings: cited from earlier work
compound,measurement,setting,value
CC[C@H](C)[C@H](NC(=O)[C@H](CCCNC(=N)N)NC(=O)[C@H](CO)NC(=O)[C@H](CC(C)C)NC(=O)[C@H](Cc1ccccc1)NC(=O)[C@H](Cc1ccccc1)NC(=O)[C@@H](N)Cc1ccccc1)C(=O)N[C@@H](Cc1ccccc1)C(N)=O [compound 2],MIC AB,[1],>100 µM
same,MIC EF,[2],100 µM
same,MIC EC,[3],50 µM
same,MIC LI,[4],50 µM
same,MIC PA,[5],>100 µM
same,MIC SA,Staphylococcus aureus,25 µM
same,MIC SP,[6],25 µM
same,HC50 at 1 h,[7],> 200 µM
CC[C@H](C)[C@H](NC(=O)[C@H](CCCNC(=N)N)NC(=O)[C@H](CCCNC(=N)N)NC(=O)[C@H](CC(C)C)NC(=O)[C@H](CCc1ccccc1)NC(=O)[C@H](Cc1ccccc1)NC(=O)[C@@H](N)Cc1ccccc1)C(=O)N[C@@H](Cc1ccccc1)C(N)=O [compound 19],MIC AB,[1],25 µM
same,MIC EC,[3],12.5 µM
same,MIC PA,[5],25 µM
same,MIC SA,Staphylococcus aureus,6.25 µM
same,MIC SP,[6],12.5 µM
same,HC50 at 1 h,[7],170 µM
N=C(N)NCCC[C@H](NC(=O)[C@H](CCCNC(=N)N)NC(=O)[C@H](Cc1ccccc1)NC(=O)[C@H](Cc1ccccc1)NC(=O)[C@H](Cc1ccccc1)NC(=O)[C@@H](N)Cc1ccccc1)C(=O)N[C@@H](Cc1ccccc1)C(=O)N[C@@H](Cc1ccccc1)C(N)=O [compound 39],MIC AB,[1],25 µM
same,MIC EF,[2],50 µM
same,MIC EC,[3],12.5 µM
same,MIC LI,[4],12.5 µM
same,MIC PA,[5],12.5 µM
same,MIC SA,Staphylococcus aureus,6.25 µM
same,MIC SP,[6],3 µM
same,HC50 at 1 h,[7],> 200 µM
N=C(N)NCCC[C@H](NC(=O)[C@H](CCCNC(=N)N)NC(=O)[C@H](Cc1ccccc1)NC(=O)[C@H](CCCNC(=N)N)NC(=O)[C@H](Cc1ccccc1)NC(=O)[C@@H](N)Cc1ccccc1)C(=O)N[C@@H](Cc1ccccc1)C(=O)N[C@@H](Cc1ccccc1)C(N)=O [compound 50],MIC AB,[1],100 µM
same,MIC EF,[2],100 µM
same,MIC PA,[5],12.5 µM
same,MIC SA,Staphylococcus aureus,6.25 µM
same,MIC SP,[6],6.25 µM
same,HC50 at 1 h,[7],> 200 µM
N=C(N)NCCC[C@H](NC(=O)[C@H](CCCNC(=N)N)NC(=O)[C@H](Cc1ccccc1)NC(=O)[C@H](Cc1ccccc1)NC(=O)[C@H](CCc1ccccc1)NC(=O)[C@@H](N)Cc1ccccc1)C(=O)N[C@@H](Cc1ccccc1)C(=O)N[C@@H](Cc1ccccc1)C(N)=O [compound 51] (H-F[hPhe]FFRRFF-NH2; N-terminus assumed),MIC KP,[8],25 µM
same,CC50 at 1 h,[7],159 µM
N=C(N)NCCC[C@H](NC(=O)[C@H](CCCNC(=N)N)NC(=O)[C@H](Cc1ccccc1)NC(=O)[C@H](CCc1ccccc1)NC(=O)[C@H](Cc1ccccc1)NC(=O)[C@@H](N)Cc1ccccc1)C(=O)N[C@@H](Cc1ccccc1)C(=O)N[C@@H](Cc1ccccc1)C(N)=O [compound 53],MIC AB,[1],12.5 µM
same,MIC EF,[2],50 µM
same,MIC EC,[3],12.5 µM
same,MIC PA,[5],12.5 µM
same,MIC SA,Staphylococcus aureus,3 µM
same,MIC SP,[6],6.25 µM
same,HC50 at 1 h,[7],140 µM
"FF(α-MeF)LSRIFamide (FF[αMeF]LSRIF-NH2; N-terminus assumed; SMILES CC[C@H](C)[C@H](NC(=O)[C@H](CCCNC(=N)N)NC(=O)[C@H](CO)NC(=O)[C@H](CC(C)C)NC(=O)[C@](C)(Cc1ccccc1)NC(=O)[C@H](Cc1ccccc1)NC(=O)[C@@H](N)Cc1ccccc1)C(=O)N[C@@H](Cc1ccccc1)C(N)=O) [SEQ ID No 7, excluded known SHf analog]",antimicrobial activity,[9],"strong activity against Gram-positive and Gram-negative bacteria, including Klebsiella pneumoniae"
FFFFKRFF-NH2 [compound 42],MIC EF,[2],>100 µM
same,MIC PA,[5],12.5 µM
same,MIC SA,Staphylococcus aureus,6.25 µM
same,MIC SP,[6],12.5 µM
same,HC50 at 1 h,[7],> 200 µM
FFFFRKFF-NH2 [compound 43],MIC AB,[1],12.5 µM
same,MIC EF,[2],100 µM
same,MIC PA,[5],12.5 µM
same,MIC SP,[6],12.5 µM
same,HC50 at 1 h,[7],> 200 µM
FFFFSRFF-NH2 [compound 34],MIC AB,[1],>100 µM
same,MIC EF,[2],100 µM
same,MIC EC,[3],>100 µM
same,MIC LI,[4],25 µM
same,MIC PA,[5],>100 µM
same,MIC SA,Staphylococcus aureus,12.5 µM
same,MIC SP,[6],6.25 µM
same,HC50 at 1 h,[7],> 200 µM
FFFRRRFF-NH2 [compound 38],MIC AB,[1],100 µM
same,MIC EF,[2],>100 µM
same,MIC EC,[3],25 µM
same,MIC PA,[5],25 µM
same,MIC SP,[6],12.5 µM
same,HC50 at 1 h,[7],> 200 µM
FFRRFFFF-NH2 [compound 41],MIC AB,[1],12.5 µM
same,MIC EF,[2],50 µM
same,MIC EC,[3],12.5 µM
same,MIC PA,[5],12.5 µM
same,MIC SA,Staphylococcus aureus,6.25 µM
same,MIC SP,[6],6.25 µM
same,HC50 at 1 h,[7],> 200 µM
FRFFRRFF-NH2 [compound 49],MIC EF,[2],>100 µM
same,MIC PA,[5],6.25 µM
same,MIC SP,[6],25 µM
same,HC50 at 1 h,[7],> 200 µM
FRFRFRFF-NH2 [compound 55],MIC EF,[2],>100 µM
same,MIC SA,Staphylococcus aureus,3 µM
same,MIC SP,[6],12.5 µM
same,HC50 at 1 h,[7],> 200 µM
FRFRFRFR-NH2 [compound 56],MIC AB,[1],25 µM
same,MIC EF,[2],30 µM
same,MIC EC,[3],3 µM
same,MIC SP,[6],6.25 µM
same,HC50 at 1 h,[7],> 200 µM
RFFFRRFF-NH2 [compound 72],MIC AB,[1],100 µM
same,MIC EF,[2],>100 µM
same,MIC PA,[5],12.5 µM
same,MIC SA,Staphylococcus aureus,6.25 µM
same,MIC SP,[6],25 µM
same,HC50 at 1 h,[7],> 200 µM
